Results taken from patent US9796700B2 (Celgene CAR LLC, priority 2013, dated 2017).

Molecular target: Erk1 (Homo sapiens (Human), UniProt P27361)
Assay: Protein Mass Modification Assay (intact protein MALDI)
Format: binding
Protocol: Protein Mass Modification Assay
Intact protein: Erk1 from Millipore (Cat. No. 14-439) was incubated for 60 min. at room temperature with a 10-fold excess of test compound to protein. 4 μL aliquots of the resulting mixture were diluted with 15 μL of 0.2% TFA prior to micro C4 ZipTipping directly onto the MALDI target using sinapinic acid as the desorption matrix (10 mg/ml in 0.1% TFA:Acetonitrile 50:50, v/v). The centroid mass of the target protein in the control sample was compared with the centroid mass of the target protein incubated with compound. A shift in the centroid mass of the treated protein compared to the untreated protein was divided by the molecular weight of the compound. This number corresponds to the percentage of modified protein after one hour incubation. Results from this assay are reported in Table A under the column “ERK1 Mass Mod (%).”

Sequence of Erk1 (P27361 whole entry, looked up): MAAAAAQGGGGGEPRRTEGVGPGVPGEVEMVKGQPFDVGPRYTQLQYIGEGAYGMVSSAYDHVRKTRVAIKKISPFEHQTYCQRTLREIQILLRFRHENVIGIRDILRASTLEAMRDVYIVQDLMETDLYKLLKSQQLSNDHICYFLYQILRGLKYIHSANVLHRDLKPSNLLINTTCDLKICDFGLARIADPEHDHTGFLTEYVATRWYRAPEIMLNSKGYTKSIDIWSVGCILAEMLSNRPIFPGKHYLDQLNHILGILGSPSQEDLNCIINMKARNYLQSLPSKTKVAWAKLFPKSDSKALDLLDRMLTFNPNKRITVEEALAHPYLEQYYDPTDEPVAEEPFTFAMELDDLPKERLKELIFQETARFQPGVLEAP

| Compound | ERK1 Mass Mod (%) |
| --- | --- |
| C=CC(=O)Nc1ccccc1Nc1nc(N[C@@H]2CCC[C@H](C(=O)NOC)C2)ncc1C(F)(F)F (racemic) [Compound I-3, Rac-cis-3-((4-((2-acrylamidophenyl)amino)-5-(trifluoromethyl)pyrimidin-2-yl)amino)-N-methoxycyclohexanecarboxamide] | E (provided a mass modification of ≧70%) |
| C=CC(=O)Nc1ccccc1Nc1nc(N[C@@H]2CCC[C@H](C(=O)NOCCO)C2)ncc1C(F)(F)F (racemic) [Compound I-4, Rac-cis-3-((4-((2-acrylamidophenyl)amino)-5-(trifluoromethyl)pyrimidin-2-yl)amino)-N-(2-hydroxyethoxy)cyclohexanecarboxamide] | F (provided a mass modification of 31-69%) |
| C=CC(=O)Nc1cc(F)ccc1Nc1nc(N[C@@H]2CCC[C@H](C(N)=O)C2)ncc1C(F)(F)F (racemic) [Compound I-5, Rac-cis-3-((4-((2-acrylamido-4-fluorophenyl)amino)-5-(trifluoromethyl)pyrimidin-2-yl)amino)cyclohexanecarboxamide] | E (provided a mass modification of ≧70%) |
| C/C=C/C(=O)Nc1cc(F)ccc1Nc1nc(N[C@@H]2CCC[C@H](C(N)=O)C2)ncc1C(F)(F)F (racemic) [Compound I-6, Rac-(E)-3-((4-((2-(but-2-enamido)-4-fluorophenyl)amino)-5-(trifluoromethyl)pyrimidin-2-yl)amino)-cis-cyclohexanecarboxamide] | E (provided a mass modification of ≧70%) |
| C=CC(=O)Nc1ccccc1Nc1nc(N[C@@H]2CCC[C@H](C(=O)O)C2)ncc1C(F)(F)F (racemic) [Compound I-14, Rac-3-((4-((2-acrylamidophenyl)amino)-5-(trifluoromethyl)pyrimidin-2-yl)amino)-cis-cyclohexanecarboxylic acid] | E (provided a mass modification of ≧70%) |
| CC(=O)N1CCC[C@H](Nc2ncc(C(F)(F)F)c(NC3C4C=CC(C4)C3C(=O)NC#N)n2)C1 (mixture of isomers) [Compound I-25, Rac-3-((2-(((S)-1-acetylpiperidin-3-yl)amino)-5-(trifluoromethyl)pyrimidin-4-yl)-cis-amino)-N-cyanobicyclo[2.2.1]hept-5-ene-2-carboxamide] | G (proived a mass modification ≦30%) |
| C=CC(=O)N[C@H]1CCCC[C@@H]1Nc1nc(N[C@H]2CCCN(C(=O)CO)C2)ncc1C(F)(F)F (racemic) [Compound I-27, Rac-N-(2-((2-(((R)-1-(2-hydroxyacetyl)piperidin-3-yl)amino)-5-(trifluoromethyl)pyrimidin-4-yl)amino)-trans-cyclohexyl)acrylamide] | F (provided a mass modification of 31-69%) |
| C=CC(=O)Nc1ccccc1Nc1nc(N[C@@H]2CCC[C@H](C(=O)NOCCO)C2)ncc1Cl (racemic) [Compound I-103, Rac-3-((4-((2-acrylamidophenyl)amino)-5-chloropyrimidin-2-yl)amino)-N-(2-hydroxyethoxy)-cis-cyclohexanecarboxamide] | E (provided a mass modification of ≧70%) |
| C=CC(=O)N(C)c1ccccc1Nc1nc(N[C@@H]2CCC[C@H](C(N)=O)C2)ncc1Cl (racemic) [Compound I-105, Rac-cis-3-((5-chloro-4-((2-(N-methylacrylamido)phenyl)amino)pyrimidin-2-yl)amino)cyclohexanecarboxamide] | F (provided a mass modification of 31-69%) |
| C=CC(=O)N(C)c1ccccc1Nc1nc(N[C@@H]2CCC[C@H](C(=O)NOC)C2)ncc1Cl (racemic) [Compound I-106, Rac-cis-3-((5-chloro-4-((2-(N-methylacrylamido)phenyl)amino)pyrimidin-2-yl)amino)-N-methoxycyclohexanecarboxamide] | F (provided a mass modification of 31-69%) |
| C=CC(=O)Nc1cc(F)ccc1Nc1nc(N[C@@H]2CCC[C@H](C(N)=O)C2)ncc1Cl (racemic) [Compound I-112, Rac-cis-3-((4-((2-acrylamido-4-fluorophenyl)amino)-5-chloropyrimidin-2-yl)amino)cyclohexanecarboxamide] | E (provided a mass modification of ≧70%) |
| C/C=C/C(=O)Nc1cc(F)ccc1Nc1nc(N[C@@H]2CCC[C@H](C(N)=O)C2)ncc1Cl (racemic) [Compound I-113, Rac-cis-(E)-3-((4-((2-(but-2-enamido)-4-fluorophenyl)amino)-5-chloropyrimidin-2-yl)amino)cyclohexanecarboxamide] | F (key: E: provided a mass modification of ≧70%; F: provided a mass modification of 31-69%; G: proived a mass modification ≦30%) |
| C=C(C)C(=O)Nc1cc(F)ccc1Nc1nc(N[C@@H]2CCC[C@H](C(N)=O)C2)ncc1Cl (racemic) [Compound I-114, Rac-cis-3-((5-chloro-4-((4-fluoro-2-methacrylamidophenyl)amino)pyrimidin-2-yl)amino)cyclohexanecarboxamide] | F (provided a mass modification of 31-69%) |
| C=CC(=O)Nc1ccccc1Nc1nc(N[C@H]2CCC[C@@H](CO)C2)ncc1Cl (racemic) [Compound I-121, Rac-cis-N-(2-((5-chloro-2-((3-(hydroxymethyl)cyclohexyl)amino)pyrimidin-4-yl)amino)phenyl)acrylamide] | E (key: E: provided a mass modification of ≧70%; F: provided a mass modification of 31-69%; G: proived a mass modification ≦30%) |
| C=CC(=O)N[C@H]1CCCC[C@@H]1Nc1nc(N[C@H]2CCCN(C(=O)CO)C2)ncc1Cl (racemic) [Compound I-141, Rac-N-(2-((5-chloro-2-(((R)-1-(2-hydroxyacetyl)piperidin-3-yl)amino)pyrimidin-4-yl)amino)-trans-cyclohexyl)acrylamide] | E (provided a mass modification of ≧70%) |
| C=CC(=O)N[C@@H]1CCCC[C@H]1Nc1nc(Nc2cc(C(=O)NOC)ccc2C)ncc1Cl (racemic) [Compound I-188, Rac-trans-3-((4-((2-acrylamidocyclohexyl)amino)-5-chloropyrimidin-2-yl)amino)-N-methoxy-4-methylbenzamide] | F (provided a mass modification of 31-69%) |
| C=CC(=O)Nc1ccccc1Nc1nc(N[C@@H]2CCC[C@H](C(=O)NOC)C2)ncc1Cl (racemic) [Compound I-203, Rac-cis-3-((4-((2-acrylamidophenyl)amino)-5-chloropyrimidin-2-yl)amino)-N-methoxy-cyclohexanecarboxamide] | E (provided a mass modification of ≧70%) |
| C=CC(=O)N[C@@H]1CCCC[C@H]1Nc1nc(Nc2cc(C(N)=O)ccc2C)ncc1Cl (racemic) [Compound I-226, Rac-trans-3-((4-((2-acrylamidocyclohexyl)amino)-5-chloropyrimidin-2-yl)amino)-4-methylbenzamide] | E (provided a mass modification of ≧70%) |
| C=CC(=O)N[C@@H]1CCCC[C@H]1Nc1nc(Nc2cc(C(N)=O)ccc2C)ncc1C(N)=O (racemic) [Compound I-255, Rac-trans-4-((2-acrylamidocyclohexyl)amino)-2-((5-carbamoyl-2-methylphenyl)amino)pyrimidine-5-carboxamide] | F (provided a mass modification of 31-69%) |
| C=CC(=O)N[C@@H]1CCCC[C@H]1Nc1nc(Nc2cc(C(=O)NOC)ccc2C)ncc1C(N)=O (racemic) [Compound I-256, Rac-trans-4-((2-acrylamidocyclohexyl)amino)-2-((5-(methoxycarbamoyl)-2-methylphenyl)amino)pyrimidine-5-carboxamide] | G (proived a mass modification ≦30%) |
| C=CC(=O)N[C@@H]1CCCC[C@H]1Nc1nc(Nc2cc(C(=O)NOCCO)ccc2C)ncc1C(N)=O (racemic) [Compound I-257, Rac-trans-4-((2-acrylamidocyclohexyl)amino)-2-((5-((2-hydroxyethoxy)carbamoyl)-2-methylphenyl)amino)pyrimidine-5-carboxamide] | G (proived a mass modification ≦30%) |
| C=CC(=O)N[C@@H]1CCCC[C@H]1Oc1nc(Nc2cc(C(N)=O)ccc2C)ncc1C(N)=O (racemic) [Compound I-268, Rac-trans-4-((2-acrylamidocyclohexyl)oxy)-2-((5-carbamoyl-2-methylphenyl)amino)pyrimidine-5-carboxamide] | G (proived a mass modification ≦30%) |
| C=CC(=O)N[C@@H]1CCCC[C@H]1Oc1nc(Nc2cc(C(=O)NOC)ccc2C)ncc1C(N)=O (racemic) [Compound I-269, Rac-trans-4-((2-acrylamidocyclohexyl)oxy)-2-((5-(methoxycarbamoyl)-2-methylphenyl)amino)pyrimidine-5-carboxamide] | G (proived a mass modification ≦30%) |
| C=CC(=O)N[C@@H]1CCCC[C@H]1Oc1nc(Nc2cc(C(N)=O)ccc2C)ncc1Cl (racemic) [Compound I-270, Rac-trans-3-((4-((2-acrylamidocyclohexyl)oxy)-5-chloropyrimidin-2-yl)amino)-4-methylbenzamide] | G (proived a mass modification ≦30%) |
| C=CC(=O)Nc1ccccc1Nc1nc(NC2CCN(C=O)CC2)ncc1C(F)(F)F [Compound I-11, N-(2-((2-((1-formylpiperidin-4-yl)amino)-5-(trifluoromethyl)pyrimidin-4-yl)amino)phenyl)acrylamide] | E (provided a mass modification of ≧70%) |
